Results: PubChem BioAssay AID1918993 (Molecular Pharmacology Branch, DTP, NCI, 2023)
pIC50: −log10 of the molar value.

Test system: 233499-124-R-J3-PDC complex spheroid growth
Assay: Anticancer human tumor 233499-124-R-J3-PDC patient-derived colon adenocarcinoma cell line growth inhibition [AhR]
Conditions: for pIC50: curve of first compound; for viability, T/C: stronger effect = lower value
Outline: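 Agents were dosed in half-log steps down from roughly clinical Cmax, or from 10 microM where Cmax was unknown, alone and with AhR antagonists. Read-out: percent test/control growth of tumor spheroids containing HUVEC and MSC stromal cells.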
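Further: spheroids exposed to agents for seven days before reading.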

## CC(C)CC(NC(=O)C(Cc1ccccc1)NC(=O)c1cnccn1)B(O)O (stereo not given) + Cc1ccccc1N=Nc1ccc(NC(=O)c2ccnn2C)c(C)c1
Second compound 0.1 µM
  pIC50: 7.79
Second compound 0.316 µM
  pIC50: 7.78
Second compound 1 µM
  pIC50: 7.74
Second compound 3.16 µM
  pIC50: 7.81
Second compound 10 µM
  pIC50: 7.76
Second compound 0.1 µM, first compound 0.000949 µM
  viability, T/C: 103%
Second compound 0.1 µM, first compound 0.003 µM
  viability, T/C: 110%
Second compound 0.1 µM, first compound 0.00949 µM
  viability, T/C: 94.1%
Second compound 0.1 µM, first compound 0.03 µM
  viability, T/C: 0.26%
Second compound 0.1 µM, first compound 0.0949 µM
  viability, T/C: 0.06%
Second compound 0.1 µM, first compound 0.3 µM
  viability, T/C: 0.13%
Second compound 0.316 µM, first compound 0.000949 µM
  viability, T/C: 99.4%
Second compound 0.316 µM, first compound 0.003 µM
  viability, T/C: 108%
Second compound 0.316 µM, first compound 0.00949 µM
  viability, T/C: 94.5%
Second compound 0.316 µM, first compound 0.03 µM
  viability, T/C: 1.73%
Second compound 0.316 µM, first compound 0.0949 µM
  viability, T/C: 0.06%
Second compound 0.316 µM, first compound 0.3 µM
  viability, T/C: 0.13%
Second compound 1 µM, first compound 0.000949 µM
  viability, T/C: 111%
Second compound 1 µM, first compound 0.003 µM
  viability, T/C: 110%
Second compound 1 µM, first compound 0.00949 µM
  viability, T/C: 98.1%
Second compound 1 µM, first compound 0.03 µM
  viability, T/C: 12.9%
Second compound 1 µM, first compound 0.0949 µM
  viability, T/C: 0.64%
Second compound 1 µM, first compound 0.3 µM
  viability, T/C: 0.14%
Second compound 3.16 µM, first compound 0.000949 µM
  viability, T/C: 111%
Second compound 3.16 µM, first compound 0.003 µM
  viability, T/C: 96.9%
Second compound 3.16 µM, first compound 0.00949 µM
  viability, T/C: 83.8%
Second compound 3.16 µM, first compound 0.03 µM
  viability, T/C: 5.62%
Second compound 3.16 µM, first compound 0.0949 µM
  viability, T/C: 0.09%
Second compound 3.16 µM, first compound 0.3 µM
  viability, T/C: 0.14%
Second compound 10 µM, first compound 0.000949 µM
  viability, T/C: 106%
Second compound 10 µM, first compound 0.003 µM
  viability, T/C: 108%
Second compound 10 µM, first compound 0.00949 µM
  viability, T/C: 105%
Second compound 10 µM, first compound 0.03 µM
  viability, T/C: 0.37%
Second compound 10 µM, first compound 0.0949 µM
  viability, T/C: 0.18%
Second compound 10 µM, first compound 0.3 µM
  viability, T/C: 0.22%
